Tested on: SNAP-tag (hINS-SNAP) in INS-1 cells
Assay: Dual-color labeling (TMR-Star, BTP block, BG505) of living INS-1 cells expressing hINS-SNAP; co-localization analysis
Type: cell-based, rat
Procedure: The first labeling was carried out for 15 min with 2 μM TMR (red) in normal media (I ml per well), followed by 2×PBS wash and 30 min, incubation in media without the SNAP substrate. The labeling with 10 μM BTP lasted 20 min. followed by two washings with PBS and 30 min incubation in media without BTP. The period between the BTP administration and the BG505 (green) administration was 4 hour long, so that any unbound BTP had sufficient time to be cleared out of the cells, thus allowing the labeling of newly synthesized hlns-SNAP. During this period […] additional washings were performed: two times with PBS and two times with media.
Cells were then incubated with 10 μM BG505 for 30 min, followed by two washings with PBS, 30 min incubation in media and another PBS washing. After the last washing, the cells were fixed (4% PFA, pH: 7.4 for 10 min at 4° C.) and embedded (ProLong Gold antifade reagent with DAPI, P36931, Molecular Probes). […]
Software analysis of the acquired images allowed the generation of images representing the co-localized pixels from both channels and also the characteristic scattered plots. […] The calculated Pearson's coefficients (10 μM BTP: 0.515; 0 μM BTP: 0.829) calculated according to Bolte et al., are in agreement with this interpretation.

Sequence of SNAP-tag (hINS-SNAP) in INS-1 cells (P16455 1-182 C62A/K125A/A127T/R128A/G131K/G132T/M134L/R135S/C150S/N157G/S159E limits assumed): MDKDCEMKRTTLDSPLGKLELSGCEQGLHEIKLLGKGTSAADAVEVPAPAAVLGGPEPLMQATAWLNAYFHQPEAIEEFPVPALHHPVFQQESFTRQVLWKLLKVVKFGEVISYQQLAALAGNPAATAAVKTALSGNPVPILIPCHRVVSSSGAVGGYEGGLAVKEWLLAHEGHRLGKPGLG

Substance: bromothenylpteridine [BTP]
- Pearson's coefficient (co-localization of TMR and BG505 pixels) (INS-1 cells exposed sequentially to TMR, 10 μM BTP and BG505, control without blocker (0 μM BTP): 0.829): 0.515
- Co-localized pixels (white) of red and green channels (blocking step with BTP interposed between sequential labelings with TMR-Star and BG505, many co-localized pixels when BTP omitted): No co-localization
